This is an account of results in US10307406B2, “Methods and compositions for re-activating Epstein-Barr virus and screening compounds therefor” (The Wistar Institute of Anatomy and Biology, priority 2013, dated 2019).

Data set [1] concerns Mutul-Hp-Luc cells. Kind of data set: microbe, parasite or virus in culture. It is filed as cell-based, Epstein-Barr Virus (EBV). The source says:
BHLF1 promoter (Hp) or the BZ1F1 promoter (Zp) was cloned into pHEBO plasmid into Nhel and HindIII restriction sites of pHEBO-luc plasmid (Yates, 1985, Nature, 313:812-815; and Deng, 2001, J. Virol. 75:10334-10347). To create pHEBO-GFP, most of luciferase gene was excised by BsrGI and HindIII sites and replaced with EGFP excised from pEGFP-N1 (Clontech). Mutul cells were transfected with the new pHEBO-Zp-luc, pHEBO-Hp-luc (FIG. 8) or pHEBO-Hp-GFP constructs and transfected cells were selected with 400 μg/mL of Hygromycin. After 2 weeks of selection, stable hygromycin-resistant cells were seeded at 5000 per well in 384 well white plates and assayed as described below.
Columns 1, 2, 23, and 24 received DMSO (0.2% final concentration). The remaining 320 wells in columns 3-22 received test compounds at a final concentration of 10 μM cumulative concentration for the 5 compounds/2 μM individual compound concentration/0.2% final DMSO concentration. Cells were incubated with compounds for 48 h at 37° C./5% CO2. Twenty microliters of Steady-Glo® Luciferase Reagent (Promega) was added to assay plates and incubated for 15 minutes at room temperature. Plates were centrifuged and luminescence was measured on an EnVision® Excite multilabel microplate reader, using the ultrasensitive luminescence measurement technology (Perkin Elmer).
To confirm the activity of candidate compounds identified after deconvolution that exceeded the cutoff parameter, liquid stock from the screening library was retested as single compounds at a final concentration of 10 μM, using assay conditions identical to the primary high-throughput screen.
To eliminate confirmed actives that may interfere with the assay technology by inhibiting luciferase, the activity of the compounds were tested in a biochemical luciferase assay counterscreen (Auld, 2008, J. Med. Chem., 51:2372-2386). To quantitatively assess the activity and prioritize compounds for further follow-up, fresh liquid stocks prepared from powders were reformatted as a 10 point dilution series spanning at least 3-logs, starting at 10 μM, the initial screening concentration. Data for test compounds was normalized to DMSO and NaB (1 mM) plate controls to calculate fold stimulation and z-factor (σ is variance/standard deviations), μ is mean of positive (p) and negative (n) controls). Z-factor is a statistical measurement that assesses the quality of the assay and predicts if the assay can be useful in a high-throughput screening. Z factors above 0.5 are considered acceptable. The screen's Z-factor was above 0.
The relative EC50 for each compound, i.e., the concentration of compound that produced 50% of the maximum effect, was calculated using a […] non-linear regression analysis (GraphPad Prism® 6 software). Error bars represent SD for each concentration of a compound. To assist with decision making points, compound activities were stratified into 4 categories: […]

Data set [2] concerns p38 MAPK, S6, p90RSK and p53 phosphorylation in Mutul cells. Kind of data set: immunoblot for phosphorylation of p38 MAPK, S6, p90RSK and p53. The conditions noted are these: 0.5 h. It is filed as cell-based. On the procedure: (§1) FIGS. 7A-C are gels illustrating the mechanism of EBV reactivation of the compounds in distinct from HDAC inhibitors and TPA. FIG. 7A is Mutul cells treated with 2% DMSO, 2 mM NaB, 20 ng/mL TPA, or 1 μM compound for 48 h, immunoblotted, and probed for acetylation of histone H3 and β-actin. FIG. 7B is Mutu-LCL352 cells treated and probed as in described in FIG. 7A. FIG. 7C is Mutul cells treated with controls or compounds for 0.5 h, immunoblotted, and probed for phosphorylated forms of p90RSK, p53, p38MAPK, S6, total MAPK, and β-actin.
Cells were incubated with DMSO, 2 mM sodium butyrate (NaB), […] 12-O-tetradecanoyl phorbol-13-acetate (TPA) or 1 μM of compounds for 72 h, washed in PBS once and lysed in 1×Laemmii buffer. Protein extract equivalent to 10^5 cells were loaded on 8-16% SDS-PAGE gels (Invitrogen) and transferred to nitrocellulose membranes (Millipore). Lytic reactivation was detected with a rabbit polyclonal anti-ZTA and mouse monoclonal anti-EA-D (Abcam) antibodies diluted in 5% evaporated milk and incubated with the membranes for 2 h at RT, or overnight at 4° C., followed by secondary anti-mouse or rabbit HRP-conjugated (Roche). Rabbit antibodies against phospho-p38 MAPK, -S6, -p90RSK and -p53 West Pico were mixed into a PathScan® cocktail (Cell Signaling). […]
(In general: In western blotting, separated proteins are transferred to a membrane and probed.)

Data set [3] relates to EBV positive BL cells. As to conditions: cited from earlier work.
Data set [4] relates to Mutul cells. Kind of data set: cell viability by trypan blue dye exclusion, with or without GCV. The conditions noted are these: 6 days, compounds at 1 μM. The format is cell-based.
Procedure: Mutul-Hp-Luc were seeded at 0.2 million per mL and treated with Compound 4. Compound 4 was added again 48 h. Freshly made GCV was added on Day 2 for 4 days twice a day, in the morning and 8 h later. Cell viability was measured either with Resazurin 5 days after the first Compound 4 treatment, or the cells were stained with Trypan blue on Day 6. […] Live cells were counted by the Trypan Blue stain exclusion method. […] Different concentrations of Compound 4 combined with GCV (gray bars) or without GCV (black bars) were used. Cell viability was measured as a percentage of DMSO-treated control cells. 590 nm fluorescence values are proportionate to the cell viability. […] Daily viability assay for Mutul cells treated with either DMSO, NaB, compound 4 (0.5 μM) with or without GCV was measured.
It was tested whether combination of the newly identified activators and GCV would increase selective cell killing of EBV infected cells. […] Specifically, gangcyclovir (GCV) was combined with a sublethal dose of compounds (1 μM) to determine if it could induce cell death in Mutul cells after six days of treatment. Cell viability was measured by trypan blue dye exclusion.
Data set [5] deals with latent EBV. The conditions noted are these: cited from earlier work.
For data set [6] the following is noted: in vivo; cited from earlier work.
Data set [7] concerns EBV positive Mutul cells. Kind of data set: resazurin cytotoxicity assay with or without GCV. Background: Resazurin is reduced to fluorescent resorufin, in cell work by metabolically active cells.
Procedure: Mutul-Hp-Luc were seeded at 0.2 million per mL and treated with Compound 4. Compound 4 was added again 48 h. Freshly made GCV was added on Day 2 for 4 days twice a day, in the morning and 8 h later. Cell viability was measured either with Resazurin 5 days after the first Compound 4 treatment, or the cells were stained with Trypan blue on Day 6. […] Live cells were counted by the Trypan Blue stain exclusion method. […] Different concentrations of Compound 4 combined with GCV (gray bars) or without GCV (black bars) were used. Cell viability was measured as a percentage of DMSO-treated control cells. 590 nm fluorescence values are proportionate to the cell viability. Cells tested include EBV-positive Mutul (FIG. 6C), Akata (FIG. 6D), DG75 (FIG. 6E), and Mutu-LCL352 (FIG. 6F). Daily viability assay for Mutul cells treated with either DMSO, NaB, compound 4 (0.5 μM) with or without GCV was measured.
Assay plates were prepared by seeding 25,000 Mutul cells in 50 μL of RPMI supplemented with 15% FBS in 384 well tissue culture plates (Nunc). […] Cells were incubated for 5 days at 37° C./5% CO2 and viability was monitored by the addition of 20 μL of 500 μM resazurin (Sigma) and incubation for 4 h at 37° C. Plates were centrifuged and fluorescence intensity was measured at 590 nm on an Envision® Xcite multilabel microplate reader (Perkin Elmer). […]
Data set [8] concerns histone H3 acetylation in Mutul and Mutu-LCL352 cells. Kind of data set: immunoblot for acetylation of histone H3. It is filed as cell-based. As to conditions: 48 h; 2 mM NaB or 1 μM compound. On the procedure: as §1
Mutul and Mutu-LCL352 cell lines were used to test whether the newly identified EBV activators function as […] by increasing acetylation on histone H3.

In data set [9] the test system is Mutul-Hp-Luc cells. It is filed as cell-based, Epstein-Barr Virus (EBV).
Setting [10] is: human gammaherpesvirus 4, read-out: EC50 values.
The mark [11] stands for this setting: Mutul-Hp-Luc cells, up to 2 mM NaB.

Like-named read-outs stand apart in the source and are kept apart here.

On to `COc1ccc(C2c3[nH]c4ccc(Cl)cc4c3CCN2C(=O)c2ccccc2F)cc1` (centres unmarked) [Compound 13], for which the EC50 in data set [1] (human gammaherpesvirus 4, 48 h) is above 0.5 µM.

In the case of `COc1ccc(C2c3[nH]c4ccc(Cl)cc4c3CCN2C(=O)c2cccc(OC)c2)cc1` (centres unmarked) [Compound 12], the half-maximal effective concentration (EC50) in data set [1] (human gammaherpesvirus 4, 48 h) was below 0.5 µM; in data set [1] (setting [10]), 0.05 to 0.2 µM. Consider `COc1ccc(C2NCCc3c2[nH]c2ccc(Cl)cc32)cc1` (centres unmarked) [Compound 11], for which the EC50 in data set [1] (human gammaherpesvirus 4, 48 h) was below 0.5 µM. The molecule `COc1ccc(C2c3[nH]c4ccc(Cl)cc4c3CCN2C(=O)c2ccccc2Cl)cc1` (centres unmarked) [Compound 14] came in with an EC50 in data set [1] (human gammaherpesvirus 4, 48 h) above 0.5 µM. As to `COc1ccc(C2c3c(c4cc(Cl)ccc4n3C(=O)c3ccc(Cl)cc3)CCN2C(=O)c2ccc(F)cc2)cc1` (centres unmarked) [Compound 23], the concentration for a half-maximal effect (EC50) in data set [1] (human gammaherpesvirus 4, 48 h) is above 0.5 µM. As to `COc1ccc(C2c3c(c4cc(Cl)ccc4n3C(=O)c3ccc(F)cc3)CCN2C(=O)c2ccc(F)cc2)cc1` (centres unmarked) [Compound 22], the EC50 was below 0.5 µM in data set [1] (human gammaherpesvirus 4, 48 h) and 0.05 to 0.2 µM in [1] (setting [10]). As for `COc1ccc(C2c3[nH]c4ccc(Cl)cc4c3CCN2C(=O)c2ccccc2C(F)(F)F)cc1` (centres unmarked) [Compound 16], the concentration for a half-maximal effect (EC50) in data set [1] (human gammaherpesvirus 4, 48 h) was above 0.5 µM. With `CCCCCCCCCCCCCC(=O)O[C@@H]1[C@@H](C)[C@@]2(O)[C@@H](C=C(CO)C[C@]3(O)C(=O)C(C)=C[C@@H]23)[C@@H]2C(C)(C)[C@]12OC(C)=O` [TPA, 12-O-tetradecanoyl phorbol-13-acetate], in data set [2], the “phosphorylation of p38 MAPK, S6, p90RSK and p53” value was “increase in phosphorylation”.

Molecule `COc1ccc(C2c3[nH]c4ccc(Cl)cc4c3CCN2C(=O)c2c(Cl)cccc2Cl)cc1` (centres unmarked) [Compound 15] registered a concentration giving a half-maximal response (EC50) in data set [1] (human gammaherpesvirus 4, 48 h) above 0.5 µM. For the molecule `CC(C)C[C@H](NC(=O)[C@H](Cc1ccccc1)NC(=O)c1cnccn1)B(O)O` [bortezomib], the “activation of latent EBV” value in data set [3] is “activator of latent EBV in a limited number of EBV positive BL cells”. The molecule `COc1ccc(C2c3[nH]c4ccc(Cl)cc4c3CCN2C(=O)c2ccc(C(F)(F)F)cc2)cc1` (centres unmarked) [Compound 20] had an EC50 in [1] (human gammaherpesvirus 4, 48 h) below 0.5 µM. On to `COc1ccc(C2c3[nH]c4ccc(Cl)cc4c3CCN2C(=O)c2ccc(F)cc2)cc1` (centres unmarked) [Compound 18], for which the EC50 in data set [1] (human gammaherpesvirus 4, 48 h) was above 0.5 µM.

Take `COc1ccc(C(=O)N2CCc3c([nH]c4ccc(Cl)cc34)C2c2ccc(OC)cc2)cc1` (centres unmarked) [Compound 21]: the 50% effective concentration (EC50) in data set [1] (human gammaherpesvirus 4, 48 h) is below 0.5 µM; in [1] (setting [10]) it was 0.05 to 0.2 µM. Consider `Nc1nc(O)c2ncn(COC(CO)CO)c2n1` [GCV, gancyclovir], for which, in data set [4], the “reduction of cell viability as single agent” value was −10%. As to `COc1ccc(C2c3[nH]c4ccc(Cl)cc4c3CCN2S(=O)(=O)c2ccc(OC)cc2)cc1` (centres unmarked) [Compound 26], in data set [1] (human gammaherpesvirus 4, 48 h), the concentration for a half-maximal effect (EC50) is above 0.5 µM.

For arginine butyrate, the “concentrations required to trigger the latent to lytic switch” value in data set [5] was “millimolar concentrations”. In [6], the “efficacy in clinical trial” value is recorded as “efficacious” and the “tolerability in clinical trial” value was “not tolerated due to toxicity”.

The molecule `COc1ccc(C2c3[nH]c4ccc(Cl)cc4c3CCN2S(=O)(=O)c2ccccc2OC)cc1` (centres unmarked) [Compound 25] gave a concentration giving a half-maximal response (EC50) in data set [1] (human gammaherpesvirus 4, 48 h) above 0.5 µM. For `COC(=O)c1ccccc1NC(=O)N1CCc2c([nH]c3ccc(Cl)cc23)C1c1ccc(OC)cc1` (centres unmarked) [Compound 10], the EC50 in data set [1] (human gammaherpesvirus 4, 48 h) was below 0.5 µM; in data set [1] (setting [10]), 0.05 to 0.2 µM.

The molecule `COc1ccc(C2c3[nH]c4ccc(Cl)cc4c3CCN2C(=O)c2ccc(Cl)cc2)cc1` (centres unmarked) [Compound 19] gave a half-maximal effective concentration (EC50) in data set [1] (human gammaherpesvirus 4, 48 h) below 0.5 µM. The molecule `COc1ccc(C2c3[nH]c4ccc(Cl)cc4c3CCN2C(=O)c2ccccc2OC)cc1` (centres unmarked) [Compound 17] gave an EC50 in data set [1] (human gammaherpesvirus 4, 48 h) above 0.5 µM. Consider `CCCC(=O)[O-].[Na+]` [NaB, sodium butyrate], for which the “concentrations required to trigger the latent to lytic switch” value in data set [5] was “millimolar concentrations”. Besides, the “synergy with GCV on killing EBV-positive cells” value in data set [7] (Mutul cells, combination with 10 μg/mL GCV) was “did not synergize with GCV”. The toxicity to cells result in data set [7] (with or without GCV, daily resazurin) is recorded as “toxic to cells regardless of EBV positive status”. In addition, in data set [8], the “acetylation of histone H3” value is given as “caused histone acetylation in both cell lines”. In addition, the pharmacokinetics result in data set [6] is “unsuitable pharmacokinetics”. In [9] (2 mM NaB, longer periods than 48 h), the “cell viability on longer exposure” value is on record as “loss of cell viability”. Also, in data set [9] (setting [11]), the cell toxicity result is “relatively low cell toxicity” and the signal-to-background is on record as 20-40 fold. Also, the “luciferase response to NaB” value in data set [9] (pHEBO-Hp-Luc in Mutul cells, 2 mM NaB vs DMSO) is above 20 fold.

As usually defined, the EC50 is the concentration needed to bring the measured effect to its halfway point.
